Data from patent publication US12123010B2, “Plants having increased tolerance to herbicides” (BASF SE, priority 2017, dated 2024).
Where “and” joins values, the source holds several entries; their conditions need not be identical. Identical values can stand only once.

Assays:
[1] = system: Variant PPO Enzyme L397Q (Amaranthus PPO2); format: biochemical; settings: variant L397Q vs wild type
[2] = system: Variant PPO Enzyme L397Q, F420M (Amaranthus PPO2); format: biochemical; settings: variant L397Q, F420M vs wild type
[3] = system: Variant PPO Enzyme R128A, F420V (Amaranthus PPO2); assay: biochemical; format: biochemical; settings: variant R128A, F420V vs wild type
[4] = system: Variant PPO Enzyme R128A, F420M (Amaranthus PPO2); format: biochemical; settings: variant R128A, F420M vs wild type
[5] = system: Transgenic T2 Arabidopsis plants and ARBTH WT MC24 non-transgenic; assay: Greenhouse post spray test, injury 14 DAT (Tables ii, iii); format: in vivo, Arabidopsis thaliana; settings: Arabidopsis thaliana, 336 h;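 note: value is percent injury to the sprayed plants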
[6] = target: Wild Type PPO Enzyme (Amaranthus PPO2, SEQ ID NO: 1) (Amaranthus tuberculatus, UniProt Q0NZW9); assay: PPO enzyme assay (recombinant), wild type; format: biochemical
[7] = system: Variant PPO Enzyme F420M (Amaranthus PPO2); assay: biochemical; format: biochemical; settings: variant F420M vs wild type
[8] = system: Transgenic T2 Arabidopsis plants harboring PPO inhibitor tolerance trait; assay: Lab based germination assay in 48-well plates (Table i); format: in vivo, Arabidopsis thaliana; settings: construct AMATU_PPO2_TP_hemG (Escherichia coli); in comparison to wild type plants
[9] = system: Transgenic T2 or T3 Soybean plants harbouring PPO inhibitor tolerance trait; assay: Soybean Trial, post spray, injury score 14 DAT; format: in vivo
Procedure: Soybean cv Jake is transformed as previously described by Siminszky et al., Phytochem Rev. 5:445-458 (2006). After regeneration, transformants are transplanted to soil in small pots, placed in growth chambers (16 hr day/8 hr night; 25° C. day/23° C. night; 65% relative humidity; 130-150 microE m-2 s-1) and subsequently tested for the presence of the T-DNA via Taqman analysis. After a few weeks, healthy, transgenic positive, single copy events are transplanted to larger pots and allowed to grow in the growth chamber. An optimal shoot for cutting is about 3-4 inches tall, with at least two nodes present. Each cutting is taken from the original transformant (mother plant) and dipped into rooting hormone powder (indole-3-butyric acid, IBA). The cutting is then placed in oasis wedges inside a bio-dome. The mother plant is taken to maturity in the greenhouse and harvested for seed. Wild type cuttings are also taken simultaneously to serve as negative controls. The cuttings are kept in the bio-dome for 5-7 days and then transplanted to 3 inch pots and then acclimated in the growth chamber for two more days. Subsequently, the cuttings are transferred to the greenhouse, acclimated for approximately 4 days prior to spray. T0 or 2-week old T1 plants are sprayed with a treatment of the uracilpyridines as disclosed SUPRA and photosynthesis inhibitor diuron as negative control. Herbicide injury evaluations are taken at 2, 7, 14 and 21 days after treatment.
Transgenic T2 or T3 Soybean plants harbouring PPO inhibitor tolerance trait, were sprayed post with the indicated amount of uracilpyridine+1% (v/v) MSO. Evaluation performed 14 Days After Treatment (DAT) and shown as injury (0-9) relative to non-transgenic treated plants. Injury Scale: 0-9, 0=no imjury, 9=maximum injury. Note: segregating lines.

Chain of Wild Type PPO Enzyme (Amaranthus PPO2, SEQ ID NO: 1) (Q0NZW9 1-534): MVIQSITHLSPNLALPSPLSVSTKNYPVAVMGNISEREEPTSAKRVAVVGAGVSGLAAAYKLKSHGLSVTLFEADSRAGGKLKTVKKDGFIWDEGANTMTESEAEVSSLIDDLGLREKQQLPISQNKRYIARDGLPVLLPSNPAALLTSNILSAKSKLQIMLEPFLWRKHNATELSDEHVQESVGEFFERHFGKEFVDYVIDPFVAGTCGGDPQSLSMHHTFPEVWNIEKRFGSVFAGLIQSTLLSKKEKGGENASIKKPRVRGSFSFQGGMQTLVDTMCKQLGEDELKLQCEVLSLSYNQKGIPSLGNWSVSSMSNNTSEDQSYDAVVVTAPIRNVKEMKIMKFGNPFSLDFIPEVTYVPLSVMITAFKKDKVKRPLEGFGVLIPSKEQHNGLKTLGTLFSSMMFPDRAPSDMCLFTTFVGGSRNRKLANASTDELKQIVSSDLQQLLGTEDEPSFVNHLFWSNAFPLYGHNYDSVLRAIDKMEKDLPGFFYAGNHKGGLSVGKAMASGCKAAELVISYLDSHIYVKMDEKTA

## CCOC(=O)COc1ncccc1Oc1nc(-n2c(=O)cc(C(F)(F)F)n(C)c2=O)c(F)cc1Cl [Uracilpyridine 2, ethyl 2-[[3-[[3-chloro-5-fluoro-6-[3-methyl-2,6-dioxo-4-(trifluoromethyl)pyrimidin-1-yl]-2-pyridyl]oxy]-2-pyridyl]oxy]acetate]
[1]
  Tolerance Factor (R/S): 7
[2]
  Tolerance Factor (R/S): 4843
[3]
  Tolerance Factor (R/S): 796 and 1105
[4]
  Tolerance Factor (R/S): 521
[5]; Table ii, ALOMY_PPO2_R137L_F438V event F, 50 g ai/ha
  pest or weed control at 50 g/ha: 18%
[5]; Table ii, ALOMY_PPO2_R137L_F438V event F, 100 g ai/ha
  pest or weed control at 100 g/ha: 18%
[5]; Table ii, ALOMY_PPO2_R137L_F438V event F, 200 g ai/ha
  pest or weed control at 200 g/ha: 23%
[5]; Table ii, ALOMY_PPO2_R137L_F438V event G, 50 g ai/ha
  pest or weed control at 50 g/ha: 0%
[5]; Table ii, ALOMY_PPO2_R137L_F438V event G, 100 g ai/ha
  pest or weed control at 100 g/ha: 10%
[5]; Table ii, ALOMY_PPO2_R137L_F438V event G, 200 g ai/ha
  pest or weed control at 200 g/ha: 20%
[5]; Table ii, ALOMY_PPO2_TP_AMATU_PPO2_R128M_F420I event R, 50 g ai/ha
  pest or weed control at 50 g/ha: 45%
[5]; Table ii, ALOMY_PPO2_TP_AMATU_PPO2_R128M_F420I event R, 100 g ai/ha
  pest or weed control at 100 g/ha: 45%
[5]; Table ii, ALOMY_PPO2_TP_AMATU_PPO2_R128M_F420I event R, 200 g ai/ha
  pest or weed control at 200 g/ha: 75%
[5]; Table ii, AMATU_PPO2_R128A_F420M event Q, 50 g ai/ha
  pest or weed control at 50 g/ha: 10%
[5]; Table ii, AMATU_PPO2_R128A_F420M event Q, 100 g ai/ha
  pest or weed control at 100 g/ha: 15%
[5]; Table ii, AMATU_PPO2_R128A_F420M event Q, 200 g ai/ha
  pest or weed control at 200 g/ha: 65%
[5]; Table ii, AMATU_PPO2_R128M_F420I event K, 50 g ai/ha
  pest or weed control at 50 g/ha: 18%
[5]; Table ii, AMATU_PPO2_R128M_F420I event K, 100 g ai/ha
  pest or weed control at 100 g/ha: 58%
[5]; Table ii, AMATU_PPO2_R128M_F420I event K, 200 g ai/ha
  pest or weed control at 200 g/ha: 70%
[5]; Table ii, AMATU_PPO2_TP_hemG event R, 100 g ai/ha
  pest or weed control at 100 g/ha: 40%
[5]; Table ii, AMATU_PPO2_TP_hemG event R, 200 g ai/ha
  pest or weed control at 200 g/ha: 35%
[5]; Table ii, AMATU_PPO2_WT event Q, 1 g ai/ha
  pest or weed control at 1 g/ha: 23%
[5]; Table ii, AMATU_PPO2_WT event Q, 5 g ai/ha
  pest or weed control at 5 g/ha: 100%
[5]; Table ii, AMATU_PPO2_WT event Q, 10 g ai/ha
  pest or weed control at 10 g/ha: 100%
[5]; Table ii, AMATU_PPO2_WT event Q, 30 g ai/ha
  pest or weed control at 30 g/ha: 100%
[5]; Table ii, ARBTH WT MC24 non-transgenic, 1 g ai/ha + 1% MSO
  pest or weed control at 1 g/ha: 100%
[5]; Table ii, ARBTH WT MC24 non-transgenic, 5 g ai/ha + 1% MSO
  pest or weed control at 5 g/ha: 100%
[5]; Table ii, ARBTH WT MC24 non-transgenic, 10 g ai/ha + 1% MSO
  pest or weed control at 10 g/ha: 100%
[5]; Table ii, ARBTH WT MC24 non-transgenic, 30 g ai/ha + 1% MSO
  pest or weed control at 30 g/ha: 100%
[5]; Table ii, ARBTH WT MC24 non-transgenic, 50 g ai/ha + 1% MSO
  pest or weed control at 50 g/ha: 100%
[5]; Table ii, ARBTH WT MC24 non-transgenic, 80 g ai/ha + 1% MSO
  pest or weed control at 80 g/ha: 100%
[5]; Table ii, ARBTH WT MC24 non-transgenic, 100 g ai/ha + 1% MSO
  pest or weed control at 100 g/ha: 100%
[5]; Table ii, ARBTH WT MC24 non-transgenic, 200 g ai/ha + 1% MSO
  pest or weed control at 200 g/ha: 100%
[5]; Table ii, ARBTH_PPO1_S305L_Y426M event O, 30 g ai/ha
  pest or weed control at 30 g/ha: 33%
[5]; Table ii, ARBTH_PPO1_S305L_Y426M event O, 50 g ai/ha as printed (row position suggests 5)
  pest or weed control at 50 g/ha: 0%
[5]; Table ii, ARBTH_PPO1_S305L_Y426M event O, 80 g ai/ha
  pest or weed control at 80 g/ha: 45%
[5]; Table ii, ARBTH_PPO1_S305L_Y426M event O, 100 g ai/ha as printed (row position suggests 10)
  pest or weed control at 100 g/ha: 0%
[5]; Table ii, ARBTH_PPO1_WT event Q, 1 g ai/ha
  pest or weed control at 1 g/ha: 15%
[5]; Table ii, ARBTH_PPO1_WT event Q, 5 g ai/ha
  pest or weed control at 5 g/ha: 100%
[5]; Table ii, ARBTH_PPO1_WT event Q, 10 g ai/ha
  pest or weed control at 10 g/ha: 100%
[5]; Table ii, ARBTH_PPO1_WT event Q, 30 g ai/ha
  pest or weed control at 30 g/ha: 100%
[5]; Table iii, ALOMY_PPO2_R137L_F438M (unnamed lines), 50 g ai/ha
  pest or weed control at 50 g/ha: 0%
[5]; Table iii, ALOMY_PPO2_R137L_F438M (unnamed lines), 100 g ai/ha
  pest or weed control at 100 g/ha: 0%
[5]; Table iii, ALOMY_PPO2_R137L_F438V (unnamed lines), 50 g ai/ha
  pest or weed control at 50 g/ha: 0%
[5]; Table iii, ALOMY_PPO2_R137L_F438V (unnamed lines), 100 g ai/ha
  pest or weed control at 100 g/ha: 0%
[5]; Table iii, AMATU_PPO2_L397E_F420M (unnamed lines), 50 g ai/ha
  pest or weed control at 50 g/ha: 0%
[5]; Table iii, AMATU_PPO2_L397E_F420V (unnamed lines), 100 g ai/ha
  pest or weed control at 100 g/ha: 0%
[5]; Table iii, AMATU_PPO2_L397Q_F420V (unnamed lines), 100 g ai/ha
  pest or weed control at 100 g/ha: 80%
[5]; Table iii, ARBTH WT MC 24 (non-transgenic), 50 g ai/ha + 1% MSO
  pest or weed control at 50 g/ha: 100%
[5]; Table iii, ARBTH WT MC 24 (non-transgenic), 100 g ai/ha + 1% MSO
  pest or weed control at 100 g/ha: 100%
[6]
  IC50: 0.187 nM
[7]
  Tolerance Factor (R/S): 244 and 415
[8]
  Tolerance Factor: 6400
[9]; L397E, F420M Event 2, 25 g/ha + 1% (v/v) MSO
  injury (0-9): 0 (No Injury)
[9]; L397E, F420M Event 2, 50 g/ha + 1% (v/v) MSO
  injury (0-9): 0 (No Injury)
[9]; L397E, F420M Event 2, 100 g/ha + 1% (v/v) MSO
  injury (0-9): 0 (No Injury)
[9]; L397E, F420V Event 1, 25 g/ha + 1% (v/v) MSO
  injury (0-9): 0 (No Injury)
[9]; L397E, F420V Event 1, 50 g/ha + 1% (v/v) MSO
  injury (0-9): 0 (No Injury)
[9]; L397E, F420V Event 1, 100 g/ha + 1% (v/v) MSO
  injury (0-9): 0 (No Injury)
[9]; L397Q, F420M Event 3, 25 g/ha + 1% (v/v) MSO
  injury (0-9): 0 (No Injury) and 3
[9]; L397Q, F420M Event 3, 50 g/ha + 1% (v/v) MSO
  injury (0-9): 3
[9]; L397Q, F420M Event 3, 100 g/ha + 1% (v/v) MSO
  injury (0-9): 3 and 2
